Values after ≈ are worked out from the molar mass of the structure shown.
Tests used:
[1] = tested on: Plasmodium falciparum; test: Antiplasmodial activity against Plasmodium falciparum K1 assessed as reduction in parasite growth by fluorescence based assay; assay type: functional, organism-based
[2] = tested on: Streptococcus agalactiae; test: Antibacterial activity against Streptococcus agalactiae ATCC 12386 assessed as reduction in bacterial growth by microbroth dilution method; assay type: functional
[3] = tested on: Enterococcus; test: Antibacterial activity against vancomycin-resistant Enterococcus GCMT3 assessed as reduction in bacterial growth incubated for 24 hrs by microbroth dilution method; assay type: functional
[4] = tested on: Enterococcus; test: Antibacterial activity against vancomycin-resistant Enterococcus GCMT1 assessed as reduction in bacterial growth incubated for 24 hrs by microbroth dilution method; assay type: functional
[5] = tested on: Breast carcinoma cell; test: Cytotoxicity against human Breast carcinoma cell assessed as reduction in cell viability by colorimetric assay; assay type: functional, cell-based
[6] = tested on: Mycobacterium tuberculosis; test: Antimycobacterial activity against Mycobacterium tuberculosis H37Rv assessed as inhibition of bacterial growth by Microplate alamar blue assay; assay type: functional, organism-based
[7] = tested on: NCI-H187; test: Cytotoxicity against human NCI-H187 cells assessed as reduction in cell viability by colorimetric assay; assay type: functional, cell-based
[8] = tested on: KB; test: Cytotoxicity against human KB cells assessed as reduction in cell viability by colorimetric assay; assay type: functional, cell-based
[9] = biological target: Maltase-glucoamylase (Homo sapiens, UniProt O43451); test: Inhibition of human Alpha-glucosidase
[10] = biological target: Sterol O-acyltransferase 2 (Homo sapiens) (UniProt O75908); test: Inhibition of human ACAT2 at 100 uM
[11] = biological target: Sterol O-acyltransferase 1 (Homo sapiens) (UniProt P35610); test: Inhibition of human ACAT1 at 100 uM
[12] = tested on: Staphylococcus aureus; test: Antibacterial activity against methicillin-resistant Staphylococcus aureus ATCC 4330 assessed as bacterial growth inhibition; assay type: functional
[13] = tested on: NCI-H187; test: Cytotoxicity against human NCI-H187 cells assessed as reduction in cell viability by resazurin microplate assay; assay type: functional, cell-based
[14] = tested on: MCF7; test: Cytotoxicity against human MCF7 cells assessed as reduction in cell viability by resazurin microplate assay; assay type: functional, cell-based
[15] = tested on: Staphylococcus aureus; test: Antibacterial activity against Staphylococcus aureus ATCC 25923 assessed as bacterial growth inhibition by broth dilution method; assay type: functional, organism-based
[16] = tested on: Staphylococcus aureus; test: Antibacterial activity against methicillin-resistant Staphylococcus aureus ATCC 25923 assessed as bacterial growth inhibition by broth dilution method; assay type: functional, organism-based
[17] = tested on: KB; test: Cytotoxicity against human KB cells assessed as reduction in cell viability by resazurin microplate assay; assay type: functional, cell-based
[18] = tested on: Candida albicans; test: Antifungal activity against Candida albicans SC5314 assessed as reduction in fungal growth incubated for 24 hrs by serial dilution method; assay type: functional
[19] = tested on: Plasmodium falciparum; test: Antiplasmodial activity against Plasmodium falciparum K1 assessed as reduction in parasitic growth by fluorescence based analysis; assay type: functional, organism-based
[20] = tested on: Plasmodium falciparum; test: Antiplasmodial activity against Plasmodium falciparum W2 assessed as reduction in plasmodial growth after 48 hrs by fluorescence based analysis; assay type: functional, organism-based; conditions: W2, 48 h
[21] = tested on: Candida albicans; test: Antifungal activity against multidrug-resistant Candida albicans ATCC 10231 assessed as reduction in fungal growth by NCCLS method; assay type: functional
[22] = tested on: Candida albicans; test: Antifungal activity against Candida albicans ATCC 10231 assessed as reduction in fungal growth by NCCLS method; assay type: functional
[23] = tested on: Mycobacterium tuberculosis; test: Antimycobacterial activity against Mycobacterium tuberculosis H37Ra assessed as reduction in bacterial growth by MABA method; assay type: functional

Sterol O-acyltransferase 2 (Homo sapiens), sequence (O75908 whole entry): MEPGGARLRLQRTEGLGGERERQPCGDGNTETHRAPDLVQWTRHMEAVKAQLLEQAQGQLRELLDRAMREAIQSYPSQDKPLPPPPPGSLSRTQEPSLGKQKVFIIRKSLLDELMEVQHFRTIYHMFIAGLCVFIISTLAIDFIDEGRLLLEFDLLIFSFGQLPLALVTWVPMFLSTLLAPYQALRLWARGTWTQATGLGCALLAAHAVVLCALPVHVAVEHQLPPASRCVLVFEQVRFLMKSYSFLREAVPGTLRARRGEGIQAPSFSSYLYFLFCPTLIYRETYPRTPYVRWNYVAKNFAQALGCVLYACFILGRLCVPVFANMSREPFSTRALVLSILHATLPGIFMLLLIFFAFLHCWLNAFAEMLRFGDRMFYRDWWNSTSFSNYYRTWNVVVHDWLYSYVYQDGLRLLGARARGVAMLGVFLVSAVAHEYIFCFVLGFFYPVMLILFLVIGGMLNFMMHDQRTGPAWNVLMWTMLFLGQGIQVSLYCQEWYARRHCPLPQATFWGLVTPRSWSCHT
Maltase-glucoamylase, sequence (O43451 whole entry): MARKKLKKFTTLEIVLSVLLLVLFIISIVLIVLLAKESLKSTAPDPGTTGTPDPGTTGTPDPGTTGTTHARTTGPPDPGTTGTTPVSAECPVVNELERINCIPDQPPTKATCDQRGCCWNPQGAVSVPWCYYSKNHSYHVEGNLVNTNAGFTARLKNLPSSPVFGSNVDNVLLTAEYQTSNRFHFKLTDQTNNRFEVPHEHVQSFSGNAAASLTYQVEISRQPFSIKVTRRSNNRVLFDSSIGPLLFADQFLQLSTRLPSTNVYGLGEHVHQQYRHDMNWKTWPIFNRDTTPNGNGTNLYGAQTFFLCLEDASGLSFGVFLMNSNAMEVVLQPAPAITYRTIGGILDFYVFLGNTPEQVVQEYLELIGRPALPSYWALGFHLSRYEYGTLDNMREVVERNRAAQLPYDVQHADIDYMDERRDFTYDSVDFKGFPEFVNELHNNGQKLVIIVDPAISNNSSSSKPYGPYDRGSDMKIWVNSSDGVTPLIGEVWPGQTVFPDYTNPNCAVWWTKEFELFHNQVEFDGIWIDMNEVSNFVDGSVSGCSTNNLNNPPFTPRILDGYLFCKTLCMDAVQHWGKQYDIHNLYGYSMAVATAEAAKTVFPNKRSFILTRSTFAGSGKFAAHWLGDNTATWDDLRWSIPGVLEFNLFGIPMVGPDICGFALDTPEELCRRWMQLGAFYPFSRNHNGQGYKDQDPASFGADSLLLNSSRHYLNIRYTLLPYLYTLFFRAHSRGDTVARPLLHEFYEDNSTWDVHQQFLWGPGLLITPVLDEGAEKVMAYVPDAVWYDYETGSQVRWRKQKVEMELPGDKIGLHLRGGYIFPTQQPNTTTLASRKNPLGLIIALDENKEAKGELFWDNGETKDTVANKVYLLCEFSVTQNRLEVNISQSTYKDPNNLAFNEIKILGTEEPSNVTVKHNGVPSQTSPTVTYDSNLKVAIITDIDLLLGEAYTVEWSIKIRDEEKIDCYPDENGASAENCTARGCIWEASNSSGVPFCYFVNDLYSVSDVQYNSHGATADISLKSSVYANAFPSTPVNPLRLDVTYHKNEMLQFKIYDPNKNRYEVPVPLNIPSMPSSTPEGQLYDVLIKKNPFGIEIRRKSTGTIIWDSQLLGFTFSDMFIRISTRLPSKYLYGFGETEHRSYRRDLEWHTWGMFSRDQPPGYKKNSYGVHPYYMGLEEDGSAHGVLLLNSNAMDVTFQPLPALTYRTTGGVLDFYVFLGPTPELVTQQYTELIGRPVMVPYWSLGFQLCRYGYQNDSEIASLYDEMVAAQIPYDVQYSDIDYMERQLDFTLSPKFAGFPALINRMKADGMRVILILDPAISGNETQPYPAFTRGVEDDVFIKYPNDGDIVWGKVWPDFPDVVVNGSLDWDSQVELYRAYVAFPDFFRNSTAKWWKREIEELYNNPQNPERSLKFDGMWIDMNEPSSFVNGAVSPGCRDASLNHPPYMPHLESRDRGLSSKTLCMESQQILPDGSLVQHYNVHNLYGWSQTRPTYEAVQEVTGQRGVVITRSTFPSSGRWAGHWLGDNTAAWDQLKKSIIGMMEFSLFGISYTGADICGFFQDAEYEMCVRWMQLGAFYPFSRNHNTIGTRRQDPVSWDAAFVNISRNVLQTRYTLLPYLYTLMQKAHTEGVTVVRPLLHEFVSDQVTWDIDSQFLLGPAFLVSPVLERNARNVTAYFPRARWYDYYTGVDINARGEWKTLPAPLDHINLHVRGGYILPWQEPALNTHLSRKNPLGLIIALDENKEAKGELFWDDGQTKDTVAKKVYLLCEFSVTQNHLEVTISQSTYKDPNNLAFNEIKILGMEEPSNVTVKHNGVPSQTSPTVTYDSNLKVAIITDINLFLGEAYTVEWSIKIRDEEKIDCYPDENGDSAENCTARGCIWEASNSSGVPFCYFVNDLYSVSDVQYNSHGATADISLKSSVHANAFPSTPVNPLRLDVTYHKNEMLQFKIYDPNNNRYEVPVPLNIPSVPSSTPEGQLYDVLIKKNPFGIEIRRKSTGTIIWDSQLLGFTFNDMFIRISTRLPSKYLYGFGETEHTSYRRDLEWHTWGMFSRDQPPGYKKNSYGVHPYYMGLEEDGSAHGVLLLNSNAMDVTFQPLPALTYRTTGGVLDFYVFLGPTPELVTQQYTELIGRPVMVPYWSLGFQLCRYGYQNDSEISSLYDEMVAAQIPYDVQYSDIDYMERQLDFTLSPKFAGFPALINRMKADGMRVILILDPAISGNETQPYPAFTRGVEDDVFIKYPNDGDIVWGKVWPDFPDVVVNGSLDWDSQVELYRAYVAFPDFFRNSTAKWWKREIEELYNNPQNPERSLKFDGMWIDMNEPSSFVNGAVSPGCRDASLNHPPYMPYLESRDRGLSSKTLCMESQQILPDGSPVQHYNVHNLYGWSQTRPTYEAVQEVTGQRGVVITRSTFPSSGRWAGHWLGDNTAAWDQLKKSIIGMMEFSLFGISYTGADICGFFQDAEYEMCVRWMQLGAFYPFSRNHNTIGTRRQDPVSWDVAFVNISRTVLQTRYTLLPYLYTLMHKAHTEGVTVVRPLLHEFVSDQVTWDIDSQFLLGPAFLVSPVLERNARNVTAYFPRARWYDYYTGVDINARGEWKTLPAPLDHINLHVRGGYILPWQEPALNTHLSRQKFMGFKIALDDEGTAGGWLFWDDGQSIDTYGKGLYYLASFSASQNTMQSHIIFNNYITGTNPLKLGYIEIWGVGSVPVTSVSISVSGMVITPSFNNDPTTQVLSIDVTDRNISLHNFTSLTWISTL
Sterol O-acyltransferase 1 (Homo sapiens), sequence (P35610 whole entry, looked up): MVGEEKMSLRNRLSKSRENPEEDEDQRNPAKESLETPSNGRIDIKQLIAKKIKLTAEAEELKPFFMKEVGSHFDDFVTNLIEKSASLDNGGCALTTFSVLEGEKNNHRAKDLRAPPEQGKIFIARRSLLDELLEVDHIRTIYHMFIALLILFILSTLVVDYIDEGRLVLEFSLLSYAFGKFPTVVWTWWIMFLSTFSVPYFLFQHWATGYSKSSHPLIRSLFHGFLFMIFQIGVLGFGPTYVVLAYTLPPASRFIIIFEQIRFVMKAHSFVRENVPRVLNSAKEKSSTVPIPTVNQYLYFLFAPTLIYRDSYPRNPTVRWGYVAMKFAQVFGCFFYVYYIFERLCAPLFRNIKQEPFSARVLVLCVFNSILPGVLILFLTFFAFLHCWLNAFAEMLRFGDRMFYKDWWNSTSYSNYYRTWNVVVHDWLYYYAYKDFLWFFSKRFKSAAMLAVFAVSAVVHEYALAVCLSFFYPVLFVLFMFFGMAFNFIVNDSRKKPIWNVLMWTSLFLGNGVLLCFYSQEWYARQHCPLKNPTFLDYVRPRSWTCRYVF

Which IC50 [1] does the source give for CC(C)=CCc1c(O)ccc2c1O[C@H]1c3ccc(O)c(CC=C(C)C)c3OC[C@@H]21 [ERYBRAEDIN A] here?
The IC50 was 3.4 µg/mL (≈ 8.66 µM).

And the MIC [2]?
Its MIC is 0.78 µg/mL (≈ 1.99 µM).

And the MIC [3]?
Its MIC is 3.13 µg/mL (≈ 7.97 µM).

And the MIC [4]?
The MIC was 1.56 µg/mL (≈ 3.97 µM).

And the IC50 [5]?
Its IC50 is 2.9 µg/mL (≈ 7.39 µM).

What about the IC50 [6] of the same compound?
The IC50 was 25 µg/mL (≈ 63.7 µM).

What about the IC50 [7] of the same compound?
The IC50 was 2.1 µg/mL (≈ 5.35 µM).

And the IC50 [8]?
Its IC50 is 5.1 µg/mL (≈ 13 µM).

What does the source list for CC1(C)C=Cc2c(ccc3c2OC2c4ccc(O)cc4OCC32)O1 (centres undefined)?
IC50 [9]: 6 µM; inhibition [10]: 67.4%; inhibition [11]: 85.9%

Which MIC50 [12] does the source give for COc1ccc2c(c1CC=C(C)C)O[C@H]1c3ccc(O)c(CC=C(C)C)c3OC[C@@]21O here?
The MIC50 was 6.25 µM (≈ 2.64 µg/mL).

How did the IC50 [13] turn out when COc1ccc2c(c1CC=C(C)C)OC1c3ccc(O)cc3OCC21 (centres undefined) was run?
The IC50 was 5.37 µg/mL (≈ 15.9 µM).

What about the IC50 [14] of the same compound?
The IC50 was 7.51 µg/mL (≈ 22.2 µM).

And the IC50 [15]?
The IC50 was 4 µg/mL (≈ 11.8 µM).

What about the IC50 [16] of the same compound?
Its IC50 is 4 µg/mL (≈ 11.8 µM).

What about the IC50 [17] of the same compound?
Its IC50 is 12.5 µg/mL (≈ 37 µM).

How did the MIC [18] turn out when Oc1cc2c(cc1O)[C@@H]1Oc3cc4c(cc3[C@@H]1CO2)OCO4 was run?
The MIC was 32 µg/mL (≈ 107 µM).

Which results are given for CC(C)=CCc1c(O)ccc2c1O[C@H]1c3ccc(O)cc3OC[C@@H]21 [PHASEOLLIDIN]?
IC50 [19]: 9.09 µg/mL (≈ 28 µM); IC50 [5]: 14.3 µg/mL (≈ 44.1 µM); IC50 [7]: 5.05 µg/mL (≈ 15.6 µM); IC50 [8]: 7.7 µg/mL (≈ 23.7 µM); IC50 [20]: 1.66 µg/mL (≈ 5.12 µM)

Which MIC [21] does the source give for COc1ccc2c(c1CC=C(C)C)O[C@H]1c3ccc(O)cc3OCC21 (some centres undefined) here?
Its MIC is 1.9 µg/mL (≈ 5.61 µM).

What about the IC50 [15] of the same compound?
Its IC50 is 8 µg/mL (≈ 23.6 µM).

What about the IC50 [16] of the same compound?
Its IC50 is 16 µg/mL (≈ 47.3 µM).

What about the IC50 [20] of the same compound?
The IC50 was 1.83 µg/mL (≈ 5.41 µM).

And the MIC [22]?
Its MIC is 3.8 µg/mL (≈ 11.2 µM).

Which MIC [23] does the source give for COc1c(CC=C(C)C)c(O)cc2c1[C@@H]1Oc3c(ccc(O)c3CC=C(C)C)[C@@H]1CO2 here?
The MIC was 50 µg/mL (≈ 118 µM).

— ChEMBL document CHEMBL5260799, “Pterocarpan scaffold: A natural lead molecule with diverse pharmacological properties” (Eur J Med Chem, 2017)
